Assay results as given in publication PMC10517971, “An inverse agonist of orphan receptor GPR61 acts by a G protein-competitive allosteric mechanism” (Nature Communications, 2023).
Where “and” joins values, the source holds several entries; their conditions need not be identical. Identical values can stand only once.

Experiments:
human GPR61 N345A = molecular target: T1, human GPR61 N345A (Homo sapiens, UniProt Q9BZJ8, N345A); assay: Functional cAMP assay (HTRF), transiently transfected CHO-K1 cells, GPR61 N345A mutant; assay type: cell-based; conditions: at up to 10 μM concentration
T1 construct: expressed in transfected cells; host or cells: CHO-K1, transient (Fugene6)
T1 sequence (Q9BZJ8 whole entry N345A): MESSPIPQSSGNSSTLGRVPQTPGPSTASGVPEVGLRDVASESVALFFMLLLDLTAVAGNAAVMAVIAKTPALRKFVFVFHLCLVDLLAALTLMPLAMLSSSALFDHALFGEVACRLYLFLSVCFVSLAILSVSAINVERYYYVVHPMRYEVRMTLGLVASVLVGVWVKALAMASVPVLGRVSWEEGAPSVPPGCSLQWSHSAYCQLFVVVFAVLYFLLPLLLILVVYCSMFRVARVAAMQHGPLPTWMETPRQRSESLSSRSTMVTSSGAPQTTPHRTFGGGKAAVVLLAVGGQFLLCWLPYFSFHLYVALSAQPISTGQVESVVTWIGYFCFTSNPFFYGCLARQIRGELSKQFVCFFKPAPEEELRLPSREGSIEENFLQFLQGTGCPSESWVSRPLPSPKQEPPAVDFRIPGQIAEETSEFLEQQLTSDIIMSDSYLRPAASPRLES
Source text: The human GPR61 (reference sequence NM_031936.4) cDNA was synthesized and subcloned into pcDNA5/FRT/TO (Thermo Fisher, Pittsburgh, PA). The pcDNA5/FRT/TO/ human GPR61 plasmid was then transfected into the Flp-In™-CHO Cell Line (Thermo Fisher, Pittsburgh, PA) and a doxycycline-inducible clonal cell line was selected (CHO TREx hGPR61 WT). Sequences encoding untagged and HiBit/hemagglutinin (HA)-tagged versions of the wild-type human GPR61 were synthesized and cloned into pcDNA3.1. The HiBit ([…]) and HA ([…]) tags were sequentially included after the N-terminal initiator methionine. […]
Parental CHO-K1 cells were maintained at 37 °C in a humidified environment (5% CO2) and grown in Dulbecco’s Modified Eagle Medium (DMEM) F-12 media (Gibco, 11320033) supplemented with 10% FBS, 1% Glutamax (Gibco, 35050061) and 100units/ml penicillin and streptomycin (Gibco, 15140122. Cells were dissociated using a cell dissociation solution (Gibco, 13151-014), counted, and resuspended in complete culture media without antibiotics. Cells were then transiently transfected using Fugene6 (Promega) in a 384-well plate format (Corning, 3570). For each well, 7500 cells were transfected with 5 ng of receptor plasmid, 20 ng of carrier DNA (Promega, PAE4881) and 0.075 μl Fugene6 in a final volume of 25 μl. […]

human GPR61 R140A = molecular target: T2, human GPR61 R140A (Homo sapiens, UniProt Q9BZJ8, R140A); assay: Functional cAMP assay (HTRF), transiently transfected CHO-K1 cells, GPR61 R140A mutant; assay type: cell-based
T2 construct: expressed in transfected cells; host or cells: CHO-K1, transient (Fugene6)
T2 sequence (Q9BZJ8 whole entry R140A): as the sequence (Q9BZJ8 whole entry N345A) above, with R140A, A345N counted along it
Source text: The human GPR61 (reference sequence NM_031936.4) cDNA was synthesized and subcloned into pcDNA5/FRT/TO (Thermo Fisher, Pittsburgh, PA). The pcDNA5/FRT/TO/ human GPR61 plasmid was then transfected into the Flp-In™-CHO Cell Line (Thermo Fisher, Pittsburgh, PA) and a doxycycline-inducible clonal cell line was selected (CHO TREx hGPR61 WT). Sequences encoding untagged and HiBit/hemagglutinin (HA)-tagged versions of the wild-type human GPR61 were synthesized and cloned into pcDNA3.1. The HiBit ([…]) and HA ([…]) tags were sequentially included after the N-terminal initiator methionine. Four single amino acid substitutions (N137A, R140A, V288A, N345A) were then introduced in the untagged and tagged human GPR61 constructs using site-specific mutagenesis. The nucleotide sequences of all receptor constructs were confirmed by automated DNA sequencing.
Parental CHO-K1 cells were maintained at 37 °C in a humidified environment (5% CO2) and grown in Dulbecco’s Modified Eagle Medium (DMEM) F-12 media (Gibco, 11320033) supplemented with 10% FBS, 1% Glutamax (Gibco, 35050061) and 100units/ml penicillin and streptomycin (Gibco, 15140122. Cells were dissociated using a cell dissociation solution (Gibco, 13151-014), counted, and resuspended in complete culture media without antibiotics. Cells were then transiently transfected using Fugene6 (Promega) in a 384-well plate format (Corning, 3570). For each well, 7500 cells were transfected with 5 ng of receptor plasmid, 20 ng of carrier DNA (Promega, PAE4881) and 0.075 μl Fugene6 in a final volume of 25 μl. […] Surface and total receptor expression was measured separately by adding 25 μl per well of the extracellular (Promega, PRN2421) and lytic (Promega, PRN3040) assay solutions, respectively. Plates were incubated for 10 min at room temperature on a shaker and luciferase activity was measured using an EnVision plate reader (Perkin Elmer, Chicago, IL). […]
A homogeneous Time-Resolved Fluorescence (HTRF) assay (Perkin Elmer, Dynamic2 kit #) was used to assess receptor basal and inverse agonist activity at human GPR61, GPR62, and GPR101. […]

In the case of `CCOc1cc(C)nc(N(CCOC)S(=O)(=O)c2ccc(NCc3c(F)cncc3F)nc2OC)n1` [Compound 1], the “sensitivity of the receptor to the compound in the cAMP assay” value (human GPR61 N345A) is reported as “no sensitivity”, the IC50 (human GPR61 R140A; Fig. 3e table, untagged, read-out: GPR61 cAMP IC50 (95% CI), R140A Untagged) is reported as 7.88 µM and the “cAMP response (Figure 3e source data)” value (human GPR61 R140A; HiBit R140A, concentration -8.5) is reported as 4.06 and 2.30 and 2.96 and 2.25 and 3.21. The “sensitivity of the receptor to inverse agonism in the cAMP assay” value (human GPR61 R140A; R140A mutant vs wild-type) was “less sensitive”.
